Eight compounds from BindingDB's records for patent US20240115574 (The Johns Hopkins University, 2024) can be followed below.

This experiment concerns the target T1, Sphingomyelin phosphodiesterase 3 (Homo sapiens, UniProt Q9NY59).
T1 sequence (Q9NY59 whole entry): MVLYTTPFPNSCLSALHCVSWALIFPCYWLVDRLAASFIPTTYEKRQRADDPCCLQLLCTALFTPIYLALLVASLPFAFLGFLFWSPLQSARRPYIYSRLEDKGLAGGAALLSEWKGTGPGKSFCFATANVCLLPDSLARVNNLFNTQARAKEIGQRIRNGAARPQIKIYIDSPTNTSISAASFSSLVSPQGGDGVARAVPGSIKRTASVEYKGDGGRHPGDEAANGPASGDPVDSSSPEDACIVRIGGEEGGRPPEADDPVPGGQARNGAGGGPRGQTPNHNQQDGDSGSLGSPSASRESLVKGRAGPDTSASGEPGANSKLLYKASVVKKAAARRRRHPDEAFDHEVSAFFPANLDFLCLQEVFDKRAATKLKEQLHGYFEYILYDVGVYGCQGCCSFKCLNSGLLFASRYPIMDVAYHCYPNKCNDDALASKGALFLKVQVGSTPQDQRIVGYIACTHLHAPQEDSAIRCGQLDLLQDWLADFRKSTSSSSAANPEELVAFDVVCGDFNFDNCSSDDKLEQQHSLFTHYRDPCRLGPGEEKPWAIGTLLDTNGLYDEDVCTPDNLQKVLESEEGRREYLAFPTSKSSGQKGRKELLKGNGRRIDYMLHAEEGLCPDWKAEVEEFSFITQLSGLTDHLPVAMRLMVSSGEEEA
Put plainly: Not found.
Description: Not found

As usually defined, the IC50 is the concentration that gives 50% inhibition. A low value points to greater potency in that assay. Regarding `COc1ccc(-c2c3nc(C)nc(N4CC[C@@H](NC(C)=O)C4)c3nn2C)cc1OC` [US20240115574, Entry 12-PROV], the IC50 is over 100 µM.

Compound `COc1ccc(-n2cnc3c(N4CC[C@@H](NC(C)=O)C4)nc(C)nc32)cc1OC` [US20240115574, Entry 2-PROV] displayed a 50% inhibitory concentration (IC50) of over 100 µM. The compound `COc1ccc(-n2c(C)nc3c(N4CC[C@@H](NC(C)=O)C4)ncnc32)cc1OC` [US20240115574, Entry 5-PROV] registered a concentration for half-maximal inhibition (IC50) of over 100 µM. The figure for `COc1ccc(-n2cnc3c(N4CC[C@@H](NC(C)=O)C4)ncnc32)cc1OC` [US20240115574, Entry 6-PROV] is over 100 µM; for `COc1ccc(-c2nn(C)c3c(N4CC[C@@H](NC(C)=O)C4)nc(C)nc23)cc1OC` [US20240115574, Entry 13-PROV] it is over 100 µM. With `COc1ccc(-c2c(C)nn3c(N4CC[C@@H](NC(C)=O)C4)nc(C)nc23)cc1OC` [US20240115574, Entry 36-PROV] the figure was over 100 µM; with `COc1ccc(-c2c(C)nn3c(N4CC[C@@H](NC(C)=O)C4)cc(C)nc23)cc1OC` [US20240115574, Entry 7-PROV], over 100 µM; with `COc1ccc(-n2ncc3c(N4CC[C@@H](NC(C)=O)C4)nc(C)nc32)cc1OC` [US20240115574, Entry 10-PROV], over 100 µM.
